Assay results from patent publication US12441730B2, “PRMT5 inhibitors” (Merck Sharp & Dohme LLC, priority 2019, dated 2025).
Where two headings read alike, the source gives them in different places.

Columns and labels:
[1] = tested on: symmetric dimethylation of arginine (SDMA) of PRMT5 substrates in MCF-7 cells; test: PRMT5 Cell Target Engagement (TE) Assay; assay type: cell-based; settings: 3 days treatment, SDMA high content imaging
Outline: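 Readout is single-cell nuclear symmetric-dimethylarginine immunofluorescence (Alexa488), normalized to DMSO-treated cells. Compounds were applied to MCF-7 cells for 3 days at 37 °C, top concentration 10000 nM in 1:3 steps over ten points; curves fitted with 4-parameter robust fit.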

[2] = target: T1, Full-length (FL)-PRMT5-MEP50 enzyme complex (Homo sapiens, UniProt O14744); test: PRMT5-MEP50 Enzyme Methylation Assay (Version B); assay type: biochemical
T1 construct: Full-length (FL)-PRMT5-MEP50 enzyme complex (recombinant proteins from baculovirus-transfected Sf21 cells: FL-PRMT5; MW=73837 kDa and FL-MEP50; MW=38614); made in house; host or cells: baculovirus-transfected Sf21 cells
Protocol: PRMT5-MEP50 Enzyme Methylation Assay (Version B)
PRMT5/MEP50 biochemical assay is a direct measurement of the methylation activity of the enzyme complex on a short peptide substrate derived from the N-terminus of H4 histone. Methylation experiment was performed with recombinant protein. The assessment of inhibitory effect (IC50) of small molecules was measured by the effectiveness of the compounds to inhibit this reaction.
In this assay, the potency (IC50) of each compound was determined from a twenty-point (1:2 serial dilution; top compound concentration of 100000 nM) titration curve using the following outlined procedure. To each well of a white ProxiPlus 384 well-plate, 100 nL of compound (1% DMSO in final assay volume of 10 μL) was dispensed, followed by the addition of 8 μL of 1× assay buffer (50 mM Bicine pH 8.0, 1 mM DTT, 0.004% Tween20, 0.01% BSA) containing 0.5 nM of Full-length (FL)-PRMT5-MEP50 enzyme complex (recombinant proteins from baculovirus-transfected Sf21 cells: FL-PRMT5; MW=[…] and FL-MEP50; MW=38614). Plates were sealed and placed in a 37° C. humidified chamber for 30 minutes pre-incubation with compounds. Subsequently, each reaction was initiated by the addition of 2 μL 1× assay buffer containing 75 nM biotinylated H4R3 (Me1) peptide, and 15 μM S-(5′-Adenosyl)-L-Methionine Chloride (SAM). The final reaction in each well of 10 μL consists of 0.5 nM PRMT5-MEP50, 75 nM biotinylated-peptide, and 15 μM SAM. Methylation reactions were allowed to proceed for 150 minutes in a sealed plate at 37° C. Reactions were immediately quenched by the addition of 1 μL of 10% formic acid. Plates were then frozen and shipped to SAMDI™ Tech Inc. to determine the percent conversion from […]. EC50 values were determined by non-linear regression according to models for either sigmoidal (4 parameters) or biphasic (7 parameters) dose-response curves.

[3] = second value of 7 parameter biphasic fit, read-out: Enzyme Methylation Assay Version B (EC50 2)
[4] = single EC50 = 4 parameter single site sigmoidal fit, EC50 1 = first value of 7 parameter biphasic fit, read-out: Enzyme Methylation Assay Version B (EC50 or EC50 1)

T1 sequence (O14744 whole entry): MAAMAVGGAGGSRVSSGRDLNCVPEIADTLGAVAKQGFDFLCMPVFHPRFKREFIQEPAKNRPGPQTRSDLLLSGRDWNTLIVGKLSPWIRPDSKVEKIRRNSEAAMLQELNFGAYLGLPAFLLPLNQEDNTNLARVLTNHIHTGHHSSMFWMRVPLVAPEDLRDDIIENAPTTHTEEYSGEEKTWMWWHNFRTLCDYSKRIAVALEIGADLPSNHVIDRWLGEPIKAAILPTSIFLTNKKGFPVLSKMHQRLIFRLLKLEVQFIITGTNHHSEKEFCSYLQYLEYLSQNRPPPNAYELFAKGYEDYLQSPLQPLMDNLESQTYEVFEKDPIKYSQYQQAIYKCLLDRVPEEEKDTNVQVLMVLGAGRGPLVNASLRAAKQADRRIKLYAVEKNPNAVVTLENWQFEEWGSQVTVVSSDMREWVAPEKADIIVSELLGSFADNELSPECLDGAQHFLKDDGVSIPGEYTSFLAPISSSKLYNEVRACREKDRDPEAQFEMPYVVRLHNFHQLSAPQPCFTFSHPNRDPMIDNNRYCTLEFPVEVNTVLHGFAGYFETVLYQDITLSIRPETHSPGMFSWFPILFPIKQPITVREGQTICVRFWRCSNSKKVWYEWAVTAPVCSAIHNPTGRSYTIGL
T1 sequence (Q9BQA1 whole entry partner): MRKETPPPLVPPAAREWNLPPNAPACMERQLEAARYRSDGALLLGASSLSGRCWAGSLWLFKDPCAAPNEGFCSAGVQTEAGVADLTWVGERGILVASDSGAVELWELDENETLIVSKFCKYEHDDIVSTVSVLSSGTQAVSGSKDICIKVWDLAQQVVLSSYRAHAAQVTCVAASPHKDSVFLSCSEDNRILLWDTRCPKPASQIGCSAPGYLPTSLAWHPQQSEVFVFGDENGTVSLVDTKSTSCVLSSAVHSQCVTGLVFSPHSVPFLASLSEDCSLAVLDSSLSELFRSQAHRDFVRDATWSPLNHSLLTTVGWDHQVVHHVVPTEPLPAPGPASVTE

Q: With CCOc1nc(Cl)ccc1C(=O)N1CCC2(CC1)Cc1ccccc1CN2 [Example 114, (6-chloro-2-ethoxypyridin-3-yl)(1,4-dihydro-1′H,2H-spiro[isoquinoline-3,4′-piperidin]-1′-yl)methanone] as the compound, how does the EC50 ([1]; Homo sapiens, MCF7, 72 h) read?
A: 7550 nM

Q: And the EC50 [2, 3]?
A: 15000 nM

Q: What about the EC50 [2, 4] of the same compound?
A: 15.1 nM

Q: For CC(=O)N1CCC(Nc2cc(C(=O)N3CC[C@]4(Cc5ccccc5CN4)[C@H](O)C3)c(F)cn2)CC1 [Example 5, 1-(4-((5-fluoro-4-((3R,3’R)-3′-hydroxy-1,4-dihydro-2H-spiro[isoquinoline-3,4′-piperidine]-1′-carbonyl)pyridin-2-yl)amino)piperidin-1-yl)ethan-1-one], which EC50 ([1]; Homo sapiens, MCF7, 72 h) is on record?
A: 38.6 nM

Q: What about the EC50 [2, 3] of the same compound?
A: 1110 nM

Q: And the EC50 [2, 4]?
A: 5.18 nM

Q: O=C(c1ccc(C(=O)N2C3CCC2COC3)cc1)N1CCC2(Cc3ccccc3CN2)C(O)C1 (single isomer, unassigned) [Example 152, (3′-hydroxy-1,4-dihydro-1′H,2H-spiro[isoquinoline-3,4′-piperidin]-1′-yl)[4-(3-oxa-8-azabicyclo[3.2.1]oct-8-ylcarbonyl)phenyl]methanone] was tested. Which EC50 [1] did it give?
A: 27.7 nM

Q: What about the EC50 [2, 3] of the same compound?
A: 335 nM

Q: And the EC50 [2, 4]?
A: 1.2 nM

Q: How did the EC50 [1] turn out when CC(=O)N1CCC(Nc2cc(C(=O)N3CCC4(Cc5ccccc5CN4)C(O)C3)ncn2)CC1 (single isomer, unassigned) [Example 90, A diastereomer of 1-[4-({6-[(3′-hydroxy-1,4-dihydro-1′H,2H-spiro[isoquinoline-3,4′-piperidin]-1′-yl)carbonyl]-4-pyrimidinyl}amino)-1-piperidinyl]ethanone] was run?
A: ≥ 10000 nM

Q: And the EC50 [2, 4]?
A: 206 nM

Q: How did the EC50 [1] turn out when CCOc1cc(C(=O)N2C3CCC2COC3)ccc1C(=O)N1CCC2(Cc3ccccc3CN2)C(O)C1 (single isomer, unassigned) [Example 86, A diastereomer of {3-ethoxy-4-[(3′-hydroxy-1,4-dihydro-1′H,2H-spiro[isoquinoline-3,4′-piperidin]-1′-yl)carbonyl]phenyl}(3-oxa-8-azabicyclo[3.2.1]oct-8-yl)methanone] was run?
A: 1470 nM

Q: What about the EC50 [2, 3] of the same compound?
A: 28800 nM

Q: And the EC50 [2, 4]?
A: 82.2 nM

Q: Which results are given for CC(=O)N1CCC(Nc2cc(C(=O)N3CC[C@]4(Cc5ccccc5CN4)[C@H](O)C3)ccn2)C(F)(F)C1 (single isomer, unassigned) [Example 96, 1—((S or R)-3,3-difluoro-4-((4-((3R,3′R)-3′-hydroxy-1,4-dihydro-2H-spiro[isoquinoline-3,4′-piperidine]-1′-carbonyl)pyridin-2-yl)amino)piperidin-1-yl)ethan-1-one]?
A: EC50 [1]: 767 nM; EC50 [2, 3]: 34300 nM; EC50 [2, 4]: 19.7 nM

Q: For CC(=O)N1CCC(Nc2cc(C(=O)N3CCC4(Cc5ccccc5CN4)C(O)C3)ncn2)CC1 (single isomer, unassigned) [Example 91, A diastereomer of 1-[4-({6-[(3′-hydroxy-1,4-dihydro-1′H,2H-spiro[isoquinoline-3,4′-piperidin]-1′-yl)carbonyl]-4-pyrimidinyl}amino)-1-piperidinyl]ethanone], which EC50 [1] is on record?
A: 305 nM

Q: What about the EC50 [2, 3] of the same compound?
A: 513 nM

Q: What about the EC50 [2, 4] of the same compound?
A: 1.65 nM

Q: O=C(c1ccc(-c2nnc(C3CC3)o2)cc1)N1CCC2(CC1)Cc1ccccc1CN2 [Example 118, [4-(5-cyclopropyl-1,3,4-oxadiazol-2-yl)phenyl](1,4-dihydro-1′H,2H-spiro[isoquinoline-3,4′-piperidin]-1′-yl)methanone] was tested. Which EC50 ([1]; Homo sapiens, MCF7, 72 h) did it give?
A: ≥ 10000 nM

Q: What about the EC50 [2, 3] of the same compound?
A: ≥ 100000 nM

Q: And the EC50 [2, 4]?
A: 510 nM

Q: CC(=O)N1CCC(Nc2cc(C(=O)N3CCC4(CC3)Cc3ccc(Cl)cc3CN4)ncn2)CC1 [Example 53, 1-(4-{[6-(7-chloro-1,4-dihydro-1′H,2H-spiro[isoquinoline-3,4′-piperidine]-1′-carbonyl)pyrimidin-4-yl]amino}piperidin-1-yl)ethan-1-one] was tested. Which EC50 ([1]; Homo sapiens, MCF7, 72 h) did it give?
A: 488 nM

Q: What about the EC50 [2, 3] of the same compound?
A: 5550 nM

Q: What about the EC50 [2, 4] of the same compound?
A: 6.21 nM

Q: For CC(=O)N1CCC(Nc2cc(C(=O)N3CCC4(CC3)Cc3ccccc3CN4)ccn2)CC1 [Example 174, 1-(4-((4-(1,4-dihydro-2H-spiro[isoquinoline-3,4′-piperidine]-1′-carbonyl)pyridin-2-yl)amino)piperidin-1-yl)ethan-1-one], which EC50 ([1]; Homo sapiens, MCF7, 72 h) is on record?
A: 797 nM

Q: And the EC50 [2, 3]?
A: 8840 nM

Q: And the EC50 [2, 4]?
A: 13.3 nM

Q: O=C(c1ccc(C(=O)N2C3CCC2COC3)cc1OC1CC1)N1CCC2(CC1)Cc1ccccc1CN2 [Example 176, (4-(3-oxa-8-azabicyclo[3.2.1]octane-8-carbonyl)-2-cyclopropoxyphenyl)(1,4-dihydro-2H-spiro[isoquinoline-3,4′-piperidin]-1′-yl)methanone] was tested. Which EC50 ([1]; Homo sapiens, MCF7, 72 h) did it give?
A: 253 nM

Q: What about the EC50 [2, 3] of the same compound?
A: 2860 nM

Q: And the EC50 [2, 4]?
A: 11 nM

Q: For O=C(c1ccc(-c2ncnn2C2CC2)cc1Cl)N1CC[C@]2(Cc3ccccc3CN2)[C@H](O)C1 [Example 110, (2-chloro-4-(1-cyclopropyl-1H-1,2,4-triazol-5-yl)phenyl)((3R,3′R)-3′-hydroxy-1,4-dihydro-2H-spiro[isoquinoline-3,4′-piperidin]-1′-yl)methanone], which EC50 ([1]; Homo sapiens, MCF7, 72 h) is on record?
A: 53 nM

Q: What about the EC50 [2, 3] of the same compound?
A: 8710 nM

Q: What about the EC50 [2, 4] of the same compound?
A: 3.31 nM

Q: What does the source list for Cn1ncnc1-c1ccc(C(=O)N2CCC3(CC2)Cc2ccccc2CN3)cc1 [Example 117, (1,4-dihydro-1′H,2H-spiro[isoquinoline-3,4′-piperidin]-1′-yl)[4-(1-methyl-1H-1,2,4-triazol-5-yl)phenyl]methanone]?
A: EC50 ([1]; Homo sapiens, MCF7, 72 h): ≥ 10000 nM; EC50 [2, 3]: ≥ 100000 nM; EC50 [2, 4]: 690 nM

Q: What does the source list for O=C(c1ccc(C(=O)N2C3CCC2COC3)cc1)N1CCC2(Cc3ccccc3CN2)C(O)C1 (single isomer, unassigned) [Example 150, (3′-hydroxy-1,4-dihydro-1′H,2H-spiro[isoquinoline-3,4′-piperidin]-1′-yl)[4-(3-oxa-8-azabicyclo[3.2.1]oct-8-ylcarbonyl)phenyl]methanone]?
A: EC50 [1]: 246 nM; EC50 [2, 3]: 1840 nM; EC50 [2, 4]: 5.61 nM

Q: How did the EC50 ([1]; Homo sapiens, MCF7, 72 h) turn out when O=C(c1ccc(C(=O)N2C3CCC2COC3)cc1)N1CCC2(CC1)Cc1ccccc1CN2 [Example 173, (4-(3-oxa-8-azabicyclo[3.2.1]octane-8-carbonyl)phenyl)(1,4-dihydro-2H-spiro[isoquinoline-3,4′-piperidin]-1′-yl)methanone] was run?
A: 5310 nM

Q: What about the EC50 [2, 3] of the same compound?
A: 14400 nM

Q: And the EC50 [2, 4]?
A: 32.3 nM

Q: CC(=O)N1CCC(Nc2cc(C(=O)N3CC[C@]4(Cc5ccccc5CN4)[C@H](O)C3)c(Cl)cn2)CC1 [Example 4, 11-(4-((5-chloro-4-((3R,3’R)-3′-hydroxy-1,4-dihydro-2H-spiro[isoquinoline-3,4′-piperidine]-1′-carbonyl)pyridin-2-yl)amino)piperidin-1-yl)ethan-1-one] was tested. Which EC50 ([1]; Homo sapiens, MCF7, 72 h) did it give?
A: 55.9 nM

Q: And the EC50 [2, 3]?
A: 1530 nM

Q: And the EC50 [2, 4]?
A: 2.63 nM

Q: For CCOc1cc(C(=O)N2C3CCC2COC3)ccc1C(=O)N1CCC2(Cc3ccccc3CN2)C(O)C1 (single isomer, unassigned) [Example 88, A diastereomer of {3-ethoxy-4-[(3′-hydroxy-1,4-dihydro-1′H,2H-spiro[isoquinoline-3,4′-piperidin]-1′-yl)carbonyl]phenyl}(3-oxa-8-azabicyclo[3.2.1]oct-8-yl)methanone], which EC50 ([1]; Homo sapiens, MCF7, 72 h) is on record?
A: 4290 nM

Q: And the EC50 [2, 4]?
A: 964 nM

Q: What does the source list for CC(=O)N1CCC(Nc2cc(C(=O)N3CC[C@]4(Cc5ccccc5CN4)[C@H](O)C3)ccn2)C(F)(F)C1 (single isomer, unassigned) [Example 97, 1—((S or R)-3,3-difluoro-4-((4-((3R,3′R)-3′-hydroxy-1,4-dihydro-2H-spiro[isoquinoline-3,4′-piperidine]-1′-carbonyl)pyridin-2-yl)amino)piperidin-1-yl)ethan-1-one]?
A: EC50 [1]: 216 nM; EC50 [2, 3]: 7410 nM; EC50 [2, 4]: 4.54 nM

Q: O=C(c1ccc(C(=O)N2C3CCC2COC3)cc1)N1CCC2(Cc3ccccc3CN2)C(O)C1 (single isomer, unassigned) [Example 151, (3′-hydroxy-1,4-dihydro-1′H,2H-spiro[isoquinoline-3,4′-piperidin]-1′-yl)[4-(3-oxa-8-azabicyclo[3.2.1]oct-8-ylcarbonyl)phenyl]methanone] was tested. Which EC50 [1] did it give?
A: 4180 nM

Q: What about the EC50 [2, 4] of the same compound?
A: 882 nM

Q: Which results are given for O=C(c1ccc(C(F)(F)F)nc1Cl)N1CCC2(CC1)Cc1ccccc1CN2 [Example 116, [2-chloro-6-(trifluoromethyl)pyridin-3-yl](1,4-dihydro-1′H,2H-spiro[isoquinoline-3,4′-piperidin]-1′-yl)methanone]?
A: EC50 ([1]; Homo sapiens, MCF7, 72 h): ≥ 10000 nM; EC50 [2, 3]: ≥ 100000 nM; EC50 [2, 4]: 807 nM
